Holding throughout (type): functional, subcellular
The subject of assay [1] is ONS. Kind of assay: Anti-parkinson's disease activity in human ONS cells assessed as early endosome marker intensity in inner region of cytoplasm at 5 uM by heat map analysis.
Assay [2] deals with ONS. Kind of assay: Anti-parkinson's disease activity in human ONS cells assessed as lysosome marker intensity in cytoplasm at 5 uM by heat map analysis.
Assay [3] relates to ONS. Kind of assay: Anti-parkinson's disease activity in human ONS cells assessed as negative mitochondrial marker intensity in outer region of cytoplasm at 5 uM by heat map analysis.
Assay [4] concerns ONS. Kind of assay: Anti-parkinson's disease activity in human ONS cells assessed as lysosome marker intensity in inner region of cytoplasm at 5 uM by heat map analysis.
The subject of assay [5] is ONS. Kind of assay: Anti-parkinson's disease activity in human ONS cells assessed as early endosome marker intensity in outer region of cytoplasm at 5 uM by heat map analysis.
In assay [6] the test system is ONS. As to the kind of experiment: Anti-parkinson's disease activity in human ONS cells assessed as lysosome marker intensity in outer region of cytoplasm at 5 uM by heat map analysis.
Assay [7] has as its system ONS. As to the kind of experiment: Anti-parkinson's disease activity in human ONS cells assessed as early endosome marker intensity in cytoplasm at 5 uM by heat map analysis.
Assay [8] concerns ONS. As to the kind of experiment: Anti-parkinson's disease activity in human ONS cells assessed as negative mitochondrial marker intensity in cytoplasm at 5 uM by heat map analysis.
Assay [9] has as its system ONS. Kind of assay: Anti-parkinson's disease activity in human ONS cells assessed as negative mitochondrial marker intensity in inner region of cytoplasm at 5 uM by heat map analysis.
Assay [10] concerns ONS. Kind of assay: Anti-parkinson's disease activity in human ONS cells assessed as LC3B marker intensity in inner region of cytoplasm at 5 uM by heat map analysis.
Assay [11] has as its system ONS. Kind of assay: Anti-parkinson's disease activity in human ONS cells assessed as LC3B marker intensity in cytoplasm at 5 uM by heat map analysis.
Assay [12] has as its system ONS. As to the kind of experiment: Anti-parkinson's disease activity in human ONS cells assessed as LC3B marker intensity in outer region of cytoplasm at 5 uM by heat map analysis.
Assay [13] relates to ONS. As to the kind of experiment: Anti-parkinson's disease activity in human ONS cells assessed as alpha-tubulin marker intensity in inner region of cytoplasm at 5 uM by heat map analysis.
The test system of assay [14] is ONS. Kind of assay: Anti-parkinson's disease activity in human ONS cells assessed as alpha-tubulin marker intensity in cytoplasm at 5 uM by heat map analysis.
The subject of assay [15] is ONS. Kind of assay: Anti-parkinson's disease activity in human ONS cells assessed as alpha-tubulin marker intensity in outer region of cytoplasm at 5 uM by heat map analysis.

Results on 19 compounds are retold here after ChEMBL document CHEMBL5365402, “Phytochemical investigation of Asarum sieboldii var. seoulense and the phenotypic profiles of its constituents against a Parkinson's Disease olfactory cell line” (Bioorg Med Chem Lett, 2023).

Activity calls are given as the source filed them. The calls are words filed in the database; no cut-off is given here.

As for `CCC(=O)c1cc2c(cc1OC)OCO2`, the outcome in assay [1], in assay [2], in [3], in [4], in assay [5] and in [6] was inactive. Moreover, the outcome in assay [7], in assay [8] and in assay [9] was inactive.

On to `COc1cc([C@H]2OC[C@H]3[C@@H]2CO[C@@H]3c2ccc3c(c2)OCO3)ccc1O`, for which the outcome in assay [10], in assay [11], in assay [3], in assay [12], in assay [8] and in assay [9] was Active.

In the case of `CCC(=O)c1cc(OC)c(O)cc1O`, the outcome in [1], in assay [2], in [13], in assay [14], in assay [4] and in [5] was Active. Besides, the result in assay [6], in assay [7] and in assay [15] was Active.

Turning to `C=CCc1cc2c(cc1OC)OCO2`, the result in assay [1], in [2], in [13], in [14], in assay [4] and in [5] was Active. Also, the result in [6], in assay [7] and in assay [15] was Active.

For the compound `O=C(O)c1ccc(O)cc1`, the outcome in [1], in assay [2], in assay [13], in assay [14], in assay [4] and in assay [5] was Active. For the same compound, the outcome in assay [6], in [7] and in assay [15] was Active.

Regarding `c1cc2c(cc1[C@H]1OC[C@H]3[C@@H]1CO[C@H]3c1ccc3c(c1)OCO3)OCO2`, the outcome in assay [1], in assay [2], in assay [13], in assay [14], in assay [4] and in assay [5] was Active. For the same compound, the result in assay [6], in [7] and in [15] was Active.

For `C=CCc1cc(OC)c(OC)c(OC)c1`, the result in assay [1], in assay [2], in [13], in [14], in assay [4] and in [5] was Active. For the same compound, the outcome in [6], in [7] and in assay [15] was Active.

For `C=CCc1cc(OC)c(O)c(OC)c1`, the outcome in assay [1], in [2], in assay [13], in assay [14], in assay [4] and in assay [5] was Active. Besides, the result in [6], in [7] and in assay [15] was Active.

`O=C(O)/C=C/c1ccc(O)cc1`: the outcome in [1], in [2], in assay [3], in assay [4], in assay [5] and in [6] was inactive. Further, the result in [7], in [8] and in assay [9] was inactive.

With `C/C=C\C=C/CC/C=C/C=C/C(=O)NCC(C)C`, the outcome in [1], in assay [2], in [13], in assay [14], in [4] and in [5] was Active. Also, the result in [6], in assay [7] and in assay [15] was Active.

Consider `CCC(=O)c1ccc2c(c1)OCO2`, for which the outcome in [1], in [2], in assay [13], in assay [14], in [4] and in [5] was Active. For the same compound, the outcome in [6], in [7] and in assay [15] was Active.

Consider `CCC(=O)c1cc2c(cc1O)OCO2`, for which the result in assay [1], in assay [2], in assay [3], in assay [4], in assay [5] and in assay [6] was inactive. In addition, the result in [7], in assay [8] and in assay [9] was inactive.

For the compound `C/C=C/C=C/CC/C=C/C=C/C(=O)NCC(C)C`, the result in assay [10], in [11], in assay [3], in assay [12], in assay [8] and in assay [9] was Active.

On to `COc1cc([C@H]2OC[C@H]3[C@@H]2CO[C@H]3c2ccc3c(c2)OCO3)ccc1O`, for which the result in assay [1], in [2], in assay [3], in assay [4], in [5] and in assay [6] was inactive. Besides, the result in [7], in assay [8] and in assay [9] was inactive.

Take `c1cc2c(cc1[C@H]1OC[C@H]3[C@@H]1CO[C@@H]3c1ccc3c(c1)OCO3)OCO2`: the result in [1], in [2], in [3], in [4], in assay [5] and in assay [6] was inactive. The result in assay [7], in [8] and in [9] was inactive.

Consider `COc1cc(/C=C/C(=O)O)ccc1O`, for which the outcome in assay [1], in assay [2], in assay [13], in assay [14], in assay [4] and in [5] was Active. Besides, the outcome in assay [6], in assay [7] and in [15] was Active.

On to `COc1cc(C(=O)O)ccc1O`, for which the result in assay [1], in [2], in assay [13], in assay [14], in assay [4] and in assay [5] was Active. In addition, the result in assay [6], in assay [7] and in [15] was Active.

Regarding `C/C=C\CC/C=C/C=C/C(=O)NCC(C)C`, the result in [1], in assay [2], in assay [13], in assay [14], in [4] and in [5] was Active. The outcome in [6], in assay [7] and in [15] was Active.

`C/C=C/C=C\CC/C=C/C=C/C(=O)NCC(C)C`: the outcome in assay [10], in [11], in [3], in [12], in assay [8] and in [9] was Active.
